Results published in US7807685B2, “Therapeutic compounds” (CBT Development Limited, priority 2006, dated 2010).
Read-outs that look alike come from different tables or passages of the source.

Legend:
[1] = biological target: T1, rat adenosine A2a receptors (Rattus norvegicus, UniProt P30543); assay: Binding at rat A2a receptors, rat striatal membranes, [3H]-CGS21680
T1 construct: from tissue; host or cells: rat striatum (membranes)
Method: Chemical structures of compounds of the invention are given in the Examples below. Binding experiments were carried out using rat A2a receptors. Ki values were determined for each compound at pH 5.5 and pH 7.4.

[2] = test system: U937 human macrophage cells; details: cited from earlier work
[3] = 20 mg/kg po; cited from earlier work
[4] = test system: carageenan-induced inflammation; details: rats, 20 mg/kg po; cited from earlier work
[5] = Tachycardia by 12 lead ECGs in human volunteers; assay type: in vivo
Method: Tachycardia was determined using 12 lead ECGs.

[6] = biological target: adenosine A2A receptor (Homo sapiens, UniProt P29274); assay: EC50 at the adenosine A2A receptor; assay type: biochemical
Text: For the avoidance of doubt, the EC50 value of a compound is defined herein as the concentration of the compound that provokes a receptor response halfway between the baseline receptor response and the maximum receptor response (as determined, for example, using a dose-response curve).
The EC50 value should be determined under standard conditions (balanced salt solutions buffered to pH 7.4). For EC50 determinations using isolated membranes, cells and tissues this would be in buffered salt solution at pH 7.4 (e.g. cell culture medium), for example as in Daly et al., Pharmacol. (1993) 46, 91-100), or preferably as in Tilburg et al (J. Med. Chem. (2002) 45, 91-100). The EC50 could also be determined in vivo by measuring adenosine receptor mediated responses in a normal healthy animal, or even in a tissue perfused under normal conditions (i.e. oxygenated blood, or oxygenated isotonic media, also buffered at pH 7.4) in a normal healthy animal.

[7] = Minimum effective analgesic plasma concentration in the rat; assay type: in vivo
[8] = Plasma concentrations after single oral dosing in human volunteers; assay type: in vivo
[9] = test system: rat adjuvant model of arthritis; assay: Analgesic relief in rat adjuvant model of arthritis; assay type: in vivo
[10] = pH 5.5, read-out: (Ki) nM (pH 5.5)
[11] = pH 7.4, read-out: (Ki) nM (pH 7.4)

T1 sequence (P30543 whole entry): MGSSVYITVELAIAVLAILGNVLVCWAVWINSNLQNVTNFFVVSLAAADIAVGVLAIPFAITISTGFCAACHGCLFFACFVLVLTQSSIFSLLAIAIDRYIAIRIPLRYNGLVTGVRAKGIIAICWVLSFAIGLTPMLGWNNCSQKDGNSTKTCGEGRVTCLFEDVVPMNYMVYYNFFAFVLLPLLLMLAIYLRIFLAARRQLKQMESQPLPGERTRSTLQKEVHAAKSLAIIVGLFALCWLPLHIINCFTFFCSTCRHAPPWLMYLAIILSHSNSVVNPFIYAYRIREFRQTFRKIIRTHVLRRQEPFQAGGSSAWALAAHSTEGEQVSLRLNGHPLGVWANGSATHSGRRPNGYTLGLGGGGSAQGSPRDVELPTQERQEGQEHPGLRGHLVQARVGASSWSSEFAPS
adenosine A2A receptor, sequence (P29274 whole entry): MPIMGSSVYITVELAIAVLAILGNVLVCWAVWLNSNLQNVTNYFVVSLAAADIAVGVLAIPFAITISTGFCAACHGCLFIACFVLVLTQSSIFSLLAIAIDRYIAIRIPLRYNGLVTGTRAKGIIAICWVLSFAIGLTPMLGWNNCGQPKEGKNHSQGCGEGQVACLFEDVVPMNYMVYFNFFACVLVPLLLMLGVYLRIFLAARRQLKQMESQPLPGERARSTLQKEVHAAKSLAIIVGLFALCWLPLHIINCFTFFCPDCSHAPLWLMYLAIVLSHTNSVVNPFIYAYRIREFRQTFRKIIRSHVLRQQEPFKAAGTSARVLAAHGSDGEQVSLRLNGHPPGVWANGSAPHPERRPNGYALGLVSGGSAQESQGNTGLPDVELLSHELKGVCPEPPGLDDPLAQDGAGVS

Ki [1, 10] [nM] | Ki [1, 11] [nM] | EC50 [6] [µM] | time with plasma concentrations greater than […] ([8]; human, 0.8 mg oral) | Compound | phorbol ester induced TNF alpha release [2] | reduction in heart rate [3] [%] | reduction in mean blood pressure [3] [%] | inhibition of carageenan-induced inflammation [4] [%] | Tachycardia side effect ([5]; single oral dose 0.2 mg) | Tachycardia side effect ([5]; single oral dose 0.8 mg) | Tachycardia side effect ([5]; single oral dose 3.5 mg) | Tachycardia side effect ([5]; single oral dose 10.5 mg) | Tachycardia side effect ([5]; single oral dose 21 mg) | Tachycardia side effect ([5]; single oral dose 28 mg) | minimum effective analgesic plasma concentration [7] [µM] | minimum effective dose in the human ([8]; suggested from rat minimum effective plasma concentration) | minimum plasma concentration giving maximal analgesic relief [9] [µM]
1900 | 1900 | – | – | CCCNc1nc(N)c2ncn([C@@H]3O[C@H](CO)[C@@H](O)[C@H]3O)c2n1 [NHCH2CH2CH3] | – | – | – | – | – | – | – | – | – | – | – | – | –
– | – | ~1 | approximately 1.5 h | COc1nc(N)c2ncn([C@@H]3O[C@H](CO)[C@@H](O)[C@H]3O)c2n1 [spongosine, 2-methoxyadenosine] | reduce phorbol ester induced TNF alpha release | 25 | 41 | 25 | No | No | No | No | No | Yes | 0.025 | approximately 0.8 mg | 0.06
47 | 17 | – | – | CCCCNc1nc(N)c2ncn([C@@H]3O[C@H](CO)[C@@H](O)[C@H]3O)c2n1 [NHCH2CH2CH2CH3] | – | – | – | – | – | – | – | – | – | – | – | – | –
